Test results taken from PMC9241942 (Microbiology Spectrum, 2022).

What was measured:
[1] = Fecal vancomycin levels in original clinical stool samples of healthy volunteers, HPLC-PDA at 205 nm; type: in vivo, human; details: for Vancomycin concn, Aliquot 3 / Vancomycin concn, Aliquot 2: original stool
Experimental: (§1) An aliquot of stool and 1 mL of extraction solvent (acetonitrile and water, 10:90 [vol/vol], 0.1% TFA) was added into 2-mL centrifuge tube and shaken (Vortex-Genie 2 Shaker, Scientific Industries, USA) for 10 s, ultrasonicated for 5 min (Multool ultrasonic cleaner, Model: TH-030A), and centrifuged at 10,000 g for 3 min (Centrifuge 5804 R, Eppendorf). The supernatant was collected and diluted by 10-fold using the extraction solvent and was stored at −80°C prior to HPLC analysis.
(§2) The mobile phase consisted of a mixture of acetonitrile and water, (10:90 [v:v], 0.1% TFA). The flow rate and the temperature of column oven were set at 0.3 mL/min and 40°C, respectively.
(§3) Differences in concentrations were compared by RSD.

[2] = Fecal vancomycin levels in lyophilized clinical stool samples, HPLC, with water correction; type: in vivo, human
Experimental: as §1, §2, §3

[3] = Vancomycin stability in clinical stool samples over time (inter-day); type: in vitro ADME, human; details: for Day 0, vancomycin concn: first assay; for Day 0, vancomycin concn / Day 48, vancomycin concn: Mean ± SD, identical aliquots n = 3, SD; for Day 48, vancomycin concn: second assay after storage
Experimental: as §1, §2, §3

[4] = Comparison with orthophosphoric acid-based extraction method (Berthoin et al. 2009), total fecal vancomycin by HPLC; type: in vivo, human
Experimental: Briefly, six samples were chosen with two aliquots were prepared for each sample. The aliquots were mixed with 971 μL of water and 29 μL of 85% orthophosphoric acid according to the composition of orthophosphoric acid-based extraction solvent developed by Berthoin et al. (2009) ([17]).

[5] = cited from earlier work
Excerpt: The goal of the human microbiome project (HMP) is to characterize the human microbiome and analyze its role in health and disease ([1]). The HMP has advanced science on the systems biology of the gut microbiome, the most diverse and abundant microbiome in the human body. By far, the largest contributor to immediate changes in the human gut microbiome are broad spectrum antimicrobials that are excreted via the gastrointestinal tract. To be able to properly study the effect of antimicrobials on the gut microbiome, pharmacokinetic studies using validated assays in the correct biologic matrix will ... || During the phase I clinical trial mentioned above, the pharmacokinetics of ibezapolstat was evaluated using a commercial laboratory. They required the entire stool in order to homogenize the sample for accurate pharmacokinetics results as the heterogeneity of antibiotics in stool samples has not been studied. This differs from blood, urine, or other matrices in which an almost constant supply is present. However, as bowl movements only occur once per day or less, use of an entire sample for pharmacokinetic analyses excludes other microbiome evaluations from that particular day or time-period. ...

[6] = cited from earlier work; remark: listed apart in the source
Excerpt: The goal of the human microbiome project (HMP) is to characterize the human microbiome and analyze its role in health and disease ([1]). The HMP has advanced science on the systems biology of the gut microbiome, the most diverse and abundant microbiome in the human body. By far, the largest contributor to immediate changes in the human gut microbiome are broad spectrum antimicrobials that are excreted via the gastrointestinal tract. […] Moreover, the quantitative range of our new method ( ...

SMILES: CN[C@H](CC(C)C)C(=O)N[C@H]1C(=O)N[C@@H](CC(N)=O)C(=O)N[C@H]2C(=O)N[C@H]3C(=O)N[C@H](C(=O)N[C@H](C(=O)O)c4cc(O)cc(O)c4-c4cc3ccc4O)[C@H](O)c3ccc(c(Cl)c3)Oc3cc2cc(c3O[C@@H]2O[C@H](CO)[C@@H](O)[C@H](O)[C@H]2O[C@H]2C[C@](C)(N)[C@H](O)[C@H](C)O2)Oc2ccc(cc2Cl)[C@H]1O [vancomycin]
- persistence of vancomycin in stool after end of dosing (in words) ([1]; healthy volunteers, oral 125 mg 4 times daily for 10 days): persists for several days following the end of the 10-day dosing regimen
- vancomycin concentration in the diluted fecal extract solution ([1]; original clinical sample 9, fecal extract diluted by 10-fold, 205 nm): 20.1 µg/mL
- Vancomycin concn, Aliquot 3 ([1]; sample 5, subject H, day 5, oral 125 mg 4 times daily for 10 days, wet wt 33.0 mg): 259 (33.0) μg/g
- Vancomycin concn, Aliquot 2 ([1]; sample 5, subject H, day 5, oral 125 mg 4 times daily for 10 days, wet wt 52.9 mg): 259 (52.9) μg/g
- Vancomycin concn, Aliquot 2 ([1]; sample 6, subject E, day 8, oral 125 mg 4 times daily for 10 days, wet wt 40.7 mg): 2033 (40.7) μg/g
- Vancomycin concn, Aliquot 3 ([1]; sample 6, subject E, day 8, oral 125 mg 4 times daily for 10 days, wet wt 106.5 mg): 1660 (106.5) μg/g
- Vancomycin concn, Aliquot 3 ([1]; sample 7, subject F, day 8, oral 125 mg 4 times daily for 10 days, wet wt 48.1 mg): 2057 (48.1) μg/g
- Vancomycin concn, Aliquot 2 ([1]; sample 7, subject F, day 8, oral 125 mg 4 times daily for 10 days, wet wt 55.7 mg): 1877 (55.7) μg/g
- Vancomycin concn, Aliquot 3 ([1]; sample 8, subject E, day 9, oral 125 mg 4 times daily for 10 days, wet wt 61.5 mg): 1920 (61.5) μg/g
- Vancomycin concn, Aliquot 2 ([1]; sample 8, subject E, day 9, oral 125 mg 4 times daily for 10 days, wet wt 91.7 mg): 1868 (91.7) μg/g
- Vancomycin concn, Aliquot 2 ([1]; sample 9, subject F, day 9, oral 125 mg 4 times daily for 10 days, wet wt 68.4 mg): 1964 (68.4) μg/g
- Vancomycin concn, Aliquot 3 ([1]; sample 9, subject F, day 9, oral 125 mg 4 times daily for 10 days, wet wt 80.2 mg): 1973 (80.2) μg/g
- Vancomycin concn, Aliquot 2 ([1]; sample 10, subject D, day 10, oral 125 mg 4 times daily for 10 days, wet wt 34.7 mg): 1947 (34.7) μg/g
- Vancomycin concn, Aliquot 3 ([1]; sample 10, subject D, day 10, oral 125 mg 4 times daily for 10 days, wet wt 57.0 mg): 1775 (57.0) μg/g
- Vancomycin concn, Aliquot 2 ([1]; sample 11, subject D, day 11, oral 125 mg 4 times daily for 10 days, wet wt 62.7 mg): 1801 (62.7) μg/g
- Vancomycin concn, Aliquot 3 ([1]; sample 11, subject D, day 11, oral 125 mg 4 times daily for 10 days, wet wt 64.0 mg): 1891 (64.0) μg/g
- Vancomycin concn, Aliquot 2 ([1]; sample 12, subject F, day 11, oral 125 mg 4 times daily for 10 days, wet wt 47 mg): 1920 (47) μg/g
- Vancomycin concn, Aliquot 3 ([1]; sample 12, subject F, day 11, oral 125 mg 4 times daily for 10 days, wet wt 54.2 mg): 1488 (54.2) μg/g
- Vancomycin concn, Aliquot 2 ([1]; sample 14, subject F, day 12, oral 125 mg 4 times daily for 10 days, wet wt 60.8 mg): 1162 (60.8) μg/g
- Vancomycin concn, Aliquot 3 ([1]; sample 14, subject F, day 12, oral 125 mg 4 times daily for 10 days, wet wt 74.6 mg): 1070 (74.6) μg/g
- Vancomycin concn, Aliquot 3 ([1]; sample 15, subject D, day 12, oral 125 mg 4 times daily for 10 days, wet wt 59.4 mg): 1200 (59.4) μg/g
- Vancomycin concn, Aliquot 2 ([1]; sample 15, subject D, day 12, oral 125 mg 4 times daily for 10 days, wet wt 90.1 mg): 1111 (90.1) μg/g
- Lyophilized samples, Vanco conc ([2]; sample 6, subject E, day 8, oral 125 mg 4 times daily for 10 days, aliquot 1, wt 31 mg): 9,206 μg/g
- Lyophilized samples, Vanco conc ([2]; sample 6, subject E, day 8, oral 125 mg 4 times daily for 10 days, aliquot 2, wt 58.2 mg): 10,109 μg/g
- Lyophilized samples, Vanco conc, Mean ([2]; sample 6, subject E, day 8, oral 125 mg 4 times daily for 10 days, mean of 2 aliquots): 9,658 μg/g
- Lyophilized samples, Vanco conc ([2]; sample 7, subject F, day 8, oral 125 mg 4 times daily for 10 days, aliquot 1, wt 44.6 mg): 8,614 μg/g
- Lyophilized samples, Vanco conc ([2]; sample 7, subject F, day 8, oral 125 mg 4 times daily for 10 days, aliquot 2, wt 28.2 mg): 9,367 μg/g
- Lyophilized samples, Vanco conc, Mean ([2]; sample 7, subject F, day 8, oral 125 mg 4 times daily for 10 days, mean of 2 aliquots): 8,991 μg/g
- Lyophilized samples, Vanco conc ([2]; sample 8, subject E, day 9, oral 125 mg 4 times daily for 10 days, aliquot 1, wt 28.7 mg): 10,116 μg/g
- Lyophilized samples, Vanco conc ([2]; sample 8, subject E, day 9, oral 125 mg 4 times daily for 10 days, aliquot 2, wt 39.4 mg): 9,445 μg/g
- Lyophilized samples, Vanco conc, Mean ([2]; sample 8, subject E, day 9, oral 125 mg 4 times daily for 10 days, mean of 2 aliquots): 9,781 μg/g
- Lyophilized samples, Vanco conc ([2]; sample 9, subject F, day 9, oral 125 mg 4 times daily for 10 days, aliquot 1, wt 26.7 mg): 9,745 μg/g
- Lyophilized samples, Vanco conc ([2]; sample 9, subject F, day 9, oral 125 mg 4 times daily for 10 days, aliquot 2, wt 43.3 mg): 8,981 μg/g
- Lyophilized samples, Vanco conc ([2]; sample 9, subject F, day 9, oral 125 mg 4 times daily for 10 days, aliquot 3, wt 60.8 mg): 8,935 μg/g
- Lyophilized samples, Vanco conc, Mean ([2]; sample 9, subject F, day 9, oral 125 mg 4 times daily for 10 days, mean of 3 aliquots): 9,220 μg/g
- Lyophilized samples, Vanco conc ([2]; sample 10, subject D, day 10, oral 125 mg 4 times daily for 10 days, aliquot 1, wt 41.2 mg): 7,501 μg/g
- Lyophilized samples, Vanco conc ([2]; sample 10, subject D, day 10, oral 125 mg 4 times daily for 10 days, aliquot 2, wt 75.3 mg): 6,911 μg/g
- Lyophilized samples, Vanco conc, Mean ([2]; sample 10, subject D, day 10, oral 125 mg 4 times daily for 10 days, mean of 2 aliquots): 7,206 μg/g
- Lyophilized samples, Vanco conc ([2]; sample 11, subject D, day 11, oral 125 mg 4 times daily for 10 days, aliquot 1, wt 51.9 mg): 7,688 μg/g
- Lyophilized samples, Vanco conc ([2]; sample 11, subject D, day 11, oral 125 mg 4 times daily for 10 days, aliquot 2, wt 36.8 mg): 8,166 μg/g
- Lyophilized samples, Vanco conc ([2]; sample 11, subject D, day 11, oral 125 mg 4 times daily for 10 days, aliquot 3, wt 30 mg): 6,457 μg/g
- Lyophilized samples, Vanco conc, Mean ([2]; sample 11, subject D, day 11, oral 125 mg 4 times daily for 10 days, mean of 3 aliquots): 7,437 μg/g
- Lyophilized samples, Vanco conc ([2]; sample 12, subject F, day 11, oral 125 mg 4 times daily for 10 days, aliquot 1, wt 12.7 mg): 9,026 μg/g
- Lyophilized samples, Vanco conc ([2]; sample 12, subject F, day 11, oral 125 mg 4 times daily for 10 days, aliquot 2, wt 32.6 mg): 8,563 μg/g
- Lyophilized samples, Vanco conc ([2]; sample 12, subject F, day 11, oral 125 mg 4 times daily for 10 days, aliquot 3, wt 49.2 mg): 6,962 μg/g
- Lyophilized samples, Vanco conc, Mean ([2]; sample 12, subject F, day 11, oral 125 mg 4 times daily for 10 days, mean of 3 aliquots): 8,184 μg/g
- Lyophilized samples, Vanco conc ([2]; sample 14, subject F, day 12, oral 125 mg 4 times daily for 10 days, aliquot 1, wt 19 mg): 6,748 μg/g
- Lyophilized samples, Vanco conc ([2]; sample 14, subject F, day 12, oral 125 mg 4 times daily for 10 days, aliquot 2, wt 37.1 mg): 5,810 μg/g
- Lyophilized samples, Vanco conc ([2]; sample 14, subject F, day 12, oral 125 mg 4 times daily for 10 days, aliquot 3, wt 56.2 mg): 5,803 μg/g
- Lyophilized samples, Vanco conc, Mean ([2]; sample 14, subject F, day 12, oral 125 mg 4 times daily for 10 days, mean of 3 aliquots): 6,120 μg/g
- Lyophilized samples, Vanco conc ([2]; sample 15, subject D, day 12, oral 125 mg 4 times daily for 10 days, aliquot 1, wt 41.6 mg): 5,058 μg/g
- Lyophilized samples, Vanco conc ([2]; sample 15, subject D, day 12, oral 125 mg 4 times daily for 10 days, aliquot 2, wt 38.5 mg): 4,941 μg/g
- Lyophilized samples, Vanco conc ([2]; sample 15, subject D, day 12, oral 125 mg 4 times daily for 10 days, aliquot 3, wt 44.1 mg): 4,921 μg/g
- Lyophilized samples, Vanco conc, Mean ([2]; sample 15, subject D, day 12, oral 125 mg 4 times daily for 10 days, mean of 3 aliquots): 4,973 μg/g
- Day 0, vancomycin concn ([3]; clinical stool sample 5): 269 ± 3 µg/g
- Day 48, vancomycin concn ([3]; clinical stool sample 5): 259 ± 14 µg/g
- Day 0, vancomycin concn ([3]; clinical stool sample 9): 1,897 ± 7 μg/g
- Day 48, vancomycin concn ([3]; clinical stool sample 9): 1,905 ± 12 μg/g
- Day 0, vancomycin concn ([3]; clinical stool sample 14): 1,211 ± 8 μg/g
- Day 48, vancomycin concn ([3]; clinical stool sample 14): 1,220 ± 11 μg/g
- stability of vancomycin concentrations in stool over time ([3]; clinical stool samples, up to 49 days studied): stable over time up to 49 days
- Fecal vancomycin concentration (Mean ± SD), Previous method ([4]; clinical sample 5, two aliquots): 267 ± 45 µg/mL
- Fecal vancomycin concentration (Mean ± SD), Previous method ([4]; clinical sample 6, two aliquots): 2,045±100 µg/ml
- Fecal vancomycin concentration (Mean ± SD), Previous method ([4]; clinical sample 8, two aliquots): 2,110±23 µg/ml
- Fecal vancomycin concentration (Mean ± SD), Previous method ([4]; clinical sample 9, two aliquots): 2,106±33 µg/ml
- Fecal vancomycin concentration (Mean ± SD), Previous method ([4]; clinical sample 12, two aliquots): 1,771±11 µg/ml
- Fecal vancomycin concentration (Mean ± SD), Previous method ([4]; clinical sample 14, two aliquots): 1,253±47 µg/ml
- water solubility (in words) [5]: water-soluble
- hydrophilicity (in words) ([5]; general statement of the discussion, no reference given): hydrophilic drug
- typical fecal vancomycin level after standard oral vancomycin administration [6]: > 100 µg/mL
- absorption from the human gastrointestinal (GI) tract (in words) ([6]; oral, mainly excreted into the stool): absorbed minimally
